{"source": "patent US20260356860A1", "about": "“2-SUBSTITUTED 3,4A,5,7,8,8A-HEXAHYDRO-4H-THIOPYRANO[4,3-DJPYRIMIDIN-4-ONES FOR WOUND TREATMENT” (priority 2022, published 2026)", "key": {"[1]": {"test_system": "full thickness excisional wounds", "assay": "Rete ridge formation (full thickness wound healing study)", "type": "in vivo, Yucatan Miniature Swine", "conditions": "rete ridge/mm", "procedure": "A 21-day full thickness open excisional wound healing study was conducted on Yucatan™ Miniature Swine (Sinclair BioResources, Auxvasse, Missouri, USA) to evaluate the efficacy of healing and local tissue reaction of compounds of Formula (I). Compounds and controls were topically administered on full thickness open excisional wounds once every other day (total 11 doses).\n(§1) Additional tests were performed including elasticity (Table 12); max force (Table 13); tensile strength (strain) (Table 14); energy peak (Table 15); rete-ridge formation; and collagen organization (plane polarized light) (FIG. 24) of the healed wound sites, described as follows.\nImproved rete ridge formation is described as epithelial extensions that project into the underlying connective tissue in both skin and mucous membrances—improved rete ridge formation is a sign of tissue regeneration rather than fibrosis/scarring (reduced rete ridge formation)."}, "closed excisional wounds": {"test_system": "closed excisional wounds", "assay": "Collagen organization (plane polarized light) of closed excisional wounds", "type": "in vivo, Yucatan Miniature Swine", "procedure": "as §1\nRegarding collagen organization, the number of wounds indicating collagen infiltration into the scar were identified by polarized imaging (plane polarized light)."}, "healed wound sites": {"test_system": "healed wound sites", "assay": "Physical properties of healed wounds, summary", "type": "in vivo, porcine", "conditions": "compared to the control", "procedure": "as §1\nWounds treated with 0.9% saline provided the least wound healing integrity for elasticity, max force, strain, and energy peak parameters."}, "[2]": {"test_system": "C. acnes (derived from ATCC ® 11827 ™)", "assay": "Bacteriostasis, log reduction", "type": "cell-based"}}}
{"smiles": "O=c1[nH]c(-c2ccc(-c3ccc(Br)nc3)cc2)nc2c1CSCC2", "note": "[Compound 7, 2-(4-(6-bromopyridin-3-yl)phenyl)-3,5,7,8-tetrahydro-4H-thiopyrano [4,3-d]pyrimidin-4-one]", "values": [{"measurement": "rete ridge formation compared to the saline control", "setting": "[1]", "result": "improved wound healing compared to the saline control (rete ridge/mm)"}]}
{"smiles": "CC(C)(OCCO)c1ccc(-c2nc3c(c(=O)[nH]2)CSCC3)cc1", "note": "[Compound 8, 2-(4-(2-(2-hydroxyethoxy)propan-2-yl)phenyl)-3,5,7,8-tetrahydro-4H-thiopyrano[4,3-d]pyrimidin-4-one]", "values": [{"measurement": "rete ridge formation compared to the saline control", "setting": "[1]", "result": "improved wound healing compared to the saline control (rete ridge/mm)"}]}
{"smiles": "O=c1[nH]c(-c2ccc(-c3ccc(B(O)O)cc3)cc2)nc2c1CSCC2", "note": "[Compound 10, (4′-(4-oxo-3,5,7,8-tetrahydro-4H-thiopyrano[4,3-d]pyrimidin-2-yl)-[1,1′-biphenyl]-4-yl)boronic acid]", "values": [{"measurement": "number of wounds indicating collagen infiltration into the scar", "setting": "closed excisional wounds", "result": 7, "unit": "wounds"}, {"measurement": "wound healing integrity (physical properties of the healed wound site)", "setting": "healed wound sites", "result": "greatest wound healing integrity"}]}
{"smiles": "COC(=O)NCCOC(C)(C)c1ccc(-c2nc3c(c(=O)[nH]2)CSCC3)cc1", "note": "[Compound 18, methyl (2-((2-(4-(4-oxo-3,5,7,8-tetrahydro-4H-thiopyrano[4,3-d]pyrimidin-2-yl)phenyl)propan-2-yl)oxy)ethyl)carbamate]", "values": [{"measurement": "Average result", "setting": "[2]; 24 h", "result": "10.7 × 10^4"}, {"measurement": "Log Reduction", "setting": "[2]; 24 h", "result": 0.7}, {"measurement": "Log Value", "setting": "[2]; 24 h", "result": 4.2}, {"measurement": "Average result", "setting": "[2]; 72 h", "result": "6.5 × 10^3"}, {"measurement": "Log Reduction", "setting": "[2]; 72 h", "result": 1.1}, {"measurement": "Log Value", "setting": "[2]; 72 h", "result": 3.8}]}
